Experimental data: article PMC2606674, “Metabolism of no-carrier-added 2-[^18F]fluoro-L-tyrosine in rats” (BMC Medical Physics, 2008)
Read-outs that look alike come from different tables or passages of the source.

Experiments:
[1] = tested on: cerebral proteins; assay: Incorporation into proteins (TCA precipitation of brain regions) in rats; format: in vivo, rat
Protocol: Chronic cannulations of rats (male, Sprague Dawley, 180–250 g) were performed in the abdominal aorta and in the vena cava under general anaesthesia (ketamine 35 mg/kg and medetomidin 0.35 mg/kg) following the procedure described by Lestage [14]. The animals were allowed to recover for a minimum of 4 days before being used for metabolism studies. Most of them were injected with the tracer within the first week after surgery. Some of them were kept up to 4 weeks before injection. Twenty hours before the injection of the tracer, the food was removed from the cage. The arterial line was used for blood sampling and the other for i.v. injection of the tracer. The two lines were flushed with saline a few minutes before use in order to check potency. 14 rats (230–410 g) were injected with 20–325 MBq of n-c-a 2-[^18F]Tyr. The tracer was delivered as a bolus of maximum volume 0.75 ml in 15 s. Samples of blood were obtained via the arterial cannula during the first minutes after the injection and at different times (15, 30, 45, 60 and/or 90 minutes) thereafter. The line was flushed with saline between each sample to avoid any loss of potency and to ensure the homogeneity of the next sample. The animals (n = number of rats) were sacrificed after 30 (n = 2), 60 (n = 5), 90 (n = 3) or 120 (n = 4) minutes. After the final time point, samples of blood were taken and the major organs were dissected. The brain was dissected to obtain striatum, cortex and cerebellum.
Trichloroacetic acid (TCA) was used to precipitate the proteins from biological samples in order to assay the radioactive content associated with proteins and to perform a chromatographic analysis of the radioactive compounds in solution in the supernatant after centrifugation. The solution used for the precipitation was Na2S2O5 100 mg, NaEDTA.2H2O 10 mg, TCA 20 g, dissolved in water up to 100 ml.
Radioactivity was measured in weighed fractions of plasma. For intermediate and final plasma samples, proteins were precipitated with TCA solution and separated by centrifugation (5°C, 5 minutes, 8000 RPM) before counting. The supernatant was analysed by HPLC. Radioactivity was measured in the organ samples and in one half of the three dissected parts of the brain. The second halves were sonicated with water (Sonics & Materials inc., Vibracell VXC-400). The proteins were precipitated with TCA solution and separated by centrifugation (5°C, 5 minutes, 8000 RPM) before counting. The supernatant was analysed by HPLC.

[2] = design: method as in PMID 2787848; conditions: cited from earlier work
[3] = tested on: cerebral proteins; design: method as in PMID 2787848; conditions: mouse cortex; cited from earlier work
[4] = Biodistribution of radioactivity after i.v. injection in awake rats; format: in vivo, rat
Protocol: All animal experiments were approved by the Ethical Committee at our institution. Chronic cannulations of rats (male, Sprague Dawley, 180–250 g) were performed in the abdominal aorta and in the vena cava under general anaesthesia (ketamine 35 mg/kg and medetomidin 0.35 mg/kg) following the procedure described by Lestage. The animals were allowed to recover for a minimum of 4 days before being used for metabolism studies. Most of them were injected with the tracer within the first week after surgery. Some of them were kept up to 4 weeks before injection. Twenty hours before the injection of the tracer, the food was removed from the cage. The arterial line was used for blood sampling and the other for i.v. injection of the tracer. The two lines were flushed with saline a few minutes before use in order to check potency. 14 rats (230–410 g) were injected with 20–325 MBq of n-c-a 2-[^18F]Tyr. The tracer was delivered as a bolus of maximum volume 0.75 ml in 15 s. […]
Radioactivity was measured in weighed fractions of plasma. […] The supernatant was analysed by HPLC. Radioactivity was measured in the organ samples and in one half of the three dissected parts of the brain. […] The supernatant was analysed by HPLC.
Radioactivity measurements of the biological samples and of the fractions collected during HPLC were performed with a NaI counter (Cobra II autogamma, Packard).

radioactivity associated with proteins, percentage of the total activity in the tissue ([1]; rat cerebellum, 60 minutes): 84%
radioactivity associated with proteins, percentage of the total activity in the tissue ([1]; rat cortex, 60 minutes): 85%
radioactivity associated with proteins, percentage of the total activity in the tissue ([1]; rat striatum, 60 min): 66%
incorporation into proteins, percentage of the total activity ([1]; rats, non dopaminergic rich regions, 120 minutes): ~90%
absolute uptake into rat brain tissue ([4]; awake rats, i.v. bolus, n-c-a tracer): ~ 0.15 %IA/g
passage of the blood-brain-barrier ([4]; rats, brain uptake already high at 30 minutes post injection): rapidly passes the blood-brain-barrier
SMILES: N[C@@H](Cc1ccc(O)cc1[18F])C(=O)O [2-[^18F]Tyr, 2-[^18F]fluoro-L-tyrosine]
absolute uptake into brain tissue, mice ([2]; at 40 min): ~ 1.3 %IA/g
absolute uptake into brain tissue, mice ([2]; at 60 min): ~ 2 %IA/g
radioactivity associated with proteins, percentage of the total activity in the tissue [3]: 84%
